Drawing on patent US20260159500A1, “KINESIN KIF18A INHIBITOR AND USE THEREOF” (SHANGHAI APEIRON THERAPEUTICS COMPANY LIMITED, priority 2022, published 2026), this text covers IC50 for 17 molecules.

The target of test [1] is T1, Human KIF18A (amino acid sequence 1-417) (Homo sapiens, UniProt Q8NI77).
T1 construct: purchased Viva Biotech (Shanghai) Ltd
T1 sequence (Q8NI77 1-417): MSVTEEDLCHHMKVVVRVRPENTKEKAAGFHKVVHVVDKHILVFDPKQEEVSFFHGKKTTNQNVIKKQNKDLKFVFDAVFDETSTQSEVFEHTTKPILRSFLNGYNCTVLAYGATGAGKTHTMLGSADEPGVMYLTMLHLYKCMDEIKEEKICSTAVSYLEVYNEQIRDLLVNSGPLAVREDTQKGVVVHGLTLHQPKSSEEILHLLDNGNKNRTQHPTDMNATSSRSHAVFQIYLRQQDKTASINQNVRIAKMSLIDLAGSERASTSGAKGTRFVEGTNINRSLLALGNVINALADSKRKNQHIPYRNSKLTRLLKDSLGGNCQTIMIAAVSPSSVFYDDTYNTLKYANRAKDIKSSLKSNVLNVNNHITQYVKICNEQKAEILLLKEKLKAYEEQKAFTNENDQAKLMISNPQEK
Put plainly: Enzymatic activity test (ADP-Glo, microtubule-stimulated KIF18A ATPase). The class given is biochemical. The note with it: 60 μg/mL microtubules, 25 μM ATP, 2.5 nM KIF18A protein, 120 min at ambient temperature, read-out: KIF18A_nM. The method, boiled down: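 Microtubule-stimulated ATPase of KIF18A(1-417) run with 60 μg/mL microtubules, 25 μM ATP and 2.5 nM enzyme, compounds at 0-10 μM final, 120 min at ambient temperature. ADP formed was read by ADP-Glo chemiluminescence after two 30-min reagent incubations.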

Another test relates to OVCAR3 cells. Put plainly: Cell proliferation activity test in OVCAR3 cells (CyQUANT Direct). The class given is cell-based. The settings on record: Homo sapiens, OVCAR-3, 72 h, 3 days incubation, CyQUANT fluorescence detection, read-out: OVCAR-3_IC50_nM. The procedure, abridged: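 Log-phase cells in RPMI-1640 with 10% FBS were seeded overnight, then exposed to compound at final 0–10 μM (0.2% DMSO) for 3 days at 37 °C, 5% CO2. Proliferation was read by CyQUANT Direct fluorescence after 60 min at 37 °C.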

For a further test, the system named is HT29 cells. Put plainly: CyQuant cell proliferation activity test in HT29 cells. It counts as cell-based. The settings on record: Homo sapiens, HT-29, 72 h, 2000 cells per well, 3 days incubation, IC50 by XLFIT, read-out: HT29_IC50_nM. The method, boiled down:
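Cells seeded at 2000/well in RPMI-1640 with 10% FBS, overnight, then exposed 3 days at 37 °C to compound from 3000 nM top, 3-fold, 9 points, 0.2% DMSO. CyQuant read after 1 h; IC50 from curve fit.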

For `Nc1ccc2cc(NC(=O)c3ccc(NS(=O)(=O)CCO)cc3N3CCC4(CC3)CC4)cc(N3CCC(F)(F)CC3)c2n1` [Example 67], the IC50 was found to be 53 nM in test [1], 7 nM with OVCAR3 cells and 13 nM in the test on HT29 cells.

Regarding `N#Cc1ccc2cc(NC(=O)c3ccc(NS(=O)(=O)CCO)cc3N3CCC4(CC3)CC4)cc(N3CCC(F)(F)CC3)c2n1` [Example 68, N-(2-cyano-8-(4,4-difluoropiperidin-1-yl)quinolin-6-yl)-4-((2-hydroxyethyl)sulfon amido)-2-(6-azaspiro[2.5]oct-6-yl)benzamide], the IC50 in test [1] stood at 306 nM; in the test on OVCAR3 cells it was 119 nM; with HT29 cells it was 100 nM.

Consider `O=C(Nc1cc(N2CCC(F)(F)CC2)c2nc(C(F)(F)F)ccc2c1)c1ccc(NS(=O)(=O)CCO)cc1N1CCC2(CC1)CC2` [Example 69, (2-(6-Azaspiro[2.5]octan-6-yl)-4-{[(2-hydroxyethyl)sulfonyl]amino}phenyl)-N-[8-(4,4-difluoropiperidinyl)-2-(trifluoromethyl)(6-quinolinyl)]formamide], for which the IC50 in test [1] was 1030 nM; with OVCAR3 cells, 1040 nM; in the test with HT29 cells, 1110 nM.

As for `[2H]c1c(NC(=O)c2ccc(NS(=O)(=O)CCO)cc2N2CCC3(CC2)CC3)cc2cccnc2c1N1CCC(F)(F)CC1` [Example 70, N-(8-(4,4-difluoropiperidin-1-yl)quinolin-6-yl-7-d)-4-((2-hydroxyethyl)sulphonamino)-2-(6-azaspiro[2.5]octan-6-yl)benzamide], the IC50 in test [1] was 43 nM; with OVCAR3 cells it was 9 nM; in the test with HT29 cells it was 16 nM.

Regarding `O=C(Nc1cc2cccnc2c(N2CCC(F)(F)CC2)c1F)c1ccc(NS(=O)(=O)CCO)cc1N1CCC2(CC1)CC2` [Example 71, N-(8-(4,4-difluoropiperidin-1-yl)-7-fluoroquinolin-6-yl)-4-((2-hydroxyethyl)sulfonamido)-2-(6-azaspiro[2.5]octan-6-yl]benzamide], the IC50 in test [1] was 128 nM; with OVCAR3 cells it was 18 nM; in the test with HT29 cells, 17 nM.

Consider `O=C(Nc1cc2cccnc2c(N2CCC(F)(F)CC2)c1C(F)(F)F)c1ccc(NS(=O)(=O)CCO)cc1N1CCC2(CC1)CC2` [Example 72, N-(8-(4,4-difluoropiperidin-1-yl)-7-(trifluoromethyl)quinolin-6-yl)-4-((2-hydroxyethyl)sulfonamido)-2-(6-azaspiro[2.5]octan-6-yl)], for which the IC50 (in test [1]; with OVCAR3 cells; in the test with HT29 cells) was over 3000 nM each time.

As to `O=C(Nc1cc2cccnc2c(N2CCC(F)(F)CC2)c1Cl)c1ccc(NS(=O)(=O)CCO)cc1N1CCC2(CC1)CC2` [Example 73, N-(7-chloro-8-(4,4-difluoropiperidin-1-yl)quinolin-6-yl)-4-((2-hydroxyethyl)sulfonamido)-2-(6-azaspiro[2.5]oct-6-yl)benzamide], the IC50 in test [1] is over 3000 nM; with OVCAR3 cells, 1030 nM; in the test on HT29 cells, 1410 nM.

As to `N#Cc1c(NC(=O)c2ccc(NS(=O)(=O)CCO)cc2N2CCC3(CC2)CC3)cc2cccnc2c1N1CCC(F)(F)CC1` [Example 74, N-(7-cyano-8-(4,4-difluoropiperidin-1-yl)quinolin-6-yl)-4-((2-hydroxyethyl)sulfon amido)-2-(6-azaspiro[2.5]oct-6-yl)benzamide], the figures for the IC50 (in test [1]; in the test on OVCAR3 cells; in the test on HT29 cells) were over 3000 nM, 1530 nM and 1790 nM, respectively.

As to `Cc1ccc2cc(NC(=O)c3ccc(NS(=O)(=O)CCO)cc3N3CCC4(CC3)CC4)c(F)c(N3CCC(F)(F)CC3)c2n1` [Example 75, N-(8-(4,4-difluoropiperidin-1-yl)-7-fluoro-2-methylquinolin-6-yl)-4-((2-hydroxyethyl)sulfonamido)-2-(6-azaspiro[2.5]octan-6-yl)benzamide], the IC50 in test [1] is 387 nM; in the test on OVCAR3 cells it was 83 nM; with HT29 cells, 44 nM.

As to `O=C(Nc1cc2ccc(O)nc2c(N2CCC(F)(F)CC2)c1F)c1ccc(NS(=O)(=O)CCO)cc1N1CCC2(CC1)CC2` [Example 76, N-(8-(4,4-difluoropiperidin-1-yl)-7-fluoro-2-hydroxyquinolin-6-yl)-4-((2-hydroxyethyl)sulfonamido)-2-(6-azaspiro[2.5]oct-6-yl)benzamide], the IC50 is 46 nM in test [1], 34 nM with OVCAR3 cells and 31 nM in the test on HT29 cells.

For `Nc1ccc2cc(NC(=O)c3ccc(NS(=O)(=O)CCO)cc3N3CCC4(CC3)CC4)c(F)c(N3CCC(F)(F)CC3)c2n1` [Example 78, N-(2-amino-8-(4,4-difluoropiperidin-1-yl)-7-fluoroquinolin-6-yl)-4-((2-hydroxyethyl)sulfonamido)-2-(6-azaspiro[2.5]octan-6-yl)benzamide], the IC50 stood at 193 nM in test [1], 12 nM in the test on OVCAR3 cells and 11 nM in the test on HT29 cells.

On to `CNc1ccc2cc(NC(=O)c3ccc(NS(=O)(=O)CCO)cc3N3CCC4(CC3)CC4)c(F)c(N3CCC(F)(F)CC3)c2n1` [Example 79, N-(8-(4,4-difluoropiperidin-1-yl)-7-fluoro-2-(methylamino)quinolin-6-yl)-4-((2-hydroxyethyl)sulfonamido)-2-(6-azaspiro[2.5]oct-6-yl)benzamide], for which the IC50 stood at 943 nM in test [1], 47 nM with OVCAR3 cells and 55 nM in the test with HT29 cells.

As for `O=C(Nc1cc2cccnc2c(N2CCC(F)(F)CC2)c1F)c1cnc(NS(=O)(=O)CCO)cc1N1CCC2(CC1)CC2` [Example 80, N-(8-(4,4-difluoropiperidin-1-yl)-7-fluoroquinolin-6-yl)-6-((2-hydroxyethyl)sulfonamido)-4-(6-azaspiro[2.5]oct-6-yl)nicotinamide], the values for the IC50 (in test [1]; in the test on OVCAR3 cells; with HT29 cells) were 9 nM, 18 nM and 20 nM, respectively.

As to `O=C(Nc1cc(N2CCC(F)(F)CC2)c2cnccc2c1)c1ccc(NS(=O)(=O)CCO)cc1N1CCC2(CC1)CC2` [Example 81, N-(8-(4,4-difluoropiperidin-1-yl)isoquinolin-6-yl)-4-(2-hydroxyethylsulfonamido)-2-(6-azaspiro[2.5]octan-6-yl)benzamide], the IC50 in test [1] stood at 35 nM; with OVCAR3 cells it was 18 nM; in the test with HT29 cells, 8 nM.

`O=C(Nc1cc(N2CCC(F)(F)CC2)c2nnccc2c1)c1ccc(NS(=O)(=O)CCO)cc1N1CCC2(CC1)CC2` [Example 82, 2-{6-azaspiro[2.5]octan-6-yl}-N-[8-(4,4-difluoropiperidin-1-yl)misonin-6-yl]-4-(2-hydroxyethanesulfonamido)benzamide]: the IC50 in test [1] is 33 nM; in the test on OVCAR3 cells it was 13 nM; in the test on HT29 cells it was 14 nM.

In the case of `Nc1ncc2cc(NC(=O)c3ccc(NS(=O)(=O)CCO)cc3N3CCC4(CC3)CC4)cc(N3CCC(F)(F)CC3)c2n1` [Example 84, N-(2-amino-8-(4,4-difluoropiperidin-1-yl)quinazolin-6-yl)-4-((2-hydroxyethyl)sulfonamido)-2-(6-azaspiro[2.5]oct-6-yl)benzamide], the results for the IC50 (in test [1]; with OVCAR3 cells; in the test with HT29 cells) were 40 nM, 11 nM and 25 nM, respectively.

Turning to `CCOC(=O)c1cnc2c(N3CCC(F)(F)CC3)cc(NC(=O)c3ccc(NS(=O)(=O)CCO)cc3N3CCC4(CC3)CC4)cc2c1` [Example 86, Ethyl 6-(2-{6-azaspiro[2.5]octan-6-yl}-4-(2-hydroxyethanesulfonamido)benzoylamino)-8-(4,4-difluoropiperidin-1-yl)quinoline-3-carboxylate], the results for the IC50 (in test [1]; in the test with OVCAR3 cells; with HT29 cells) were 223 nM, 34 nM and 56 nM, respectively.
